Data taken from US20200207782A1, “CHEMICALLY ACTIVATED WATER-SOLUBLE PRODRUG” (SUMITOMO DAINIPPON PHARMA CO., LTD, priority 2017, published 2020).
Values after ≈ are worked out from the molar mass of the structure shown. Values joined by “and” are separate entries in the source; they are usually repeats but may differ in a detail not shown here. Identical values can stand only once. Counter-ions that a name gives are not always drawn. Values belong to the compound of their own block, whether it stands above or below them.

Legend:
physchem = conditions: thermodynamic from solid; for solubility: pH 3, aqueous buffer; for solubility at 24 h: pH 2, aqueous buffer
Experimental: The solubility of the water-soluble prodrugs described in the Examples and the Reference Examples was measured. […] The filtrate was measured by HPLC.

[1] = Solution stability test (residual ratio and generation of active form in buffers of pH 2.0 to 9.0); type: physicochemical; set-up: Rate of generation of active form after 24 hours in buffer with pH of 7.4: tested at 25 µM; conditions: for Residual ratio / Rate of generation of active form after 24 hours in buffer with pH of 7.4: 25° C.; for Residual ratio: 25 umol/L; for Degradation behaviour in buffers (in words): pH 2.0 to 9.0; for Rate of generation of active form after 24 hours in buffer with pH of 7.4: pH 7.4 buffer
Experimental: The test compounds were incubated at 25° C. at a concentration of 25 umol/L in a buffer prepared to have a pH of 2.0, 3.0, 5.0, 7.4, and 9.0. The compounds were measured by HPLC after 0, 3, 6, 9, 12, and 24 hours.
The buffers used at each pH are the following. • pH 2.0: 50 mmol/L glycine buffer • pH 3.0: 50 mmol/L citrate buffer • pH 5.0: 50 mmol/L citrate buffer • pH 7.4: 50 mmol/L phosphate buffer • pH 9.0: 50 mmol/L glycine buffer
The measurement conditions for HPLC are the following.
The yield of the Example and Reference Example compounds and active forms is calculated with each of the peak area of the Example and Reference Example compounds at 0 minutes and the peak area upon dissolution of the corresponding active form at 100 umol/L as 100%. The yield is denoted in terms of %

[2] = Evaluation of conversion rate to active form in CD1 mouse plasma; type: in vitro ADME; conditions: CD1 mouse plasma, incubation time 120 minutes
Experimental: (§1) The ratio of decrease of a test compound and the conversion ratio to a corresponding active form (2-acetylthieno[3,2-f][1]benzofuran-4,8-dione) in human plasma and CD1 mouse plasma were measured for Example 1.
(§2) The test compounds were incubated at 37° C. at a concentration of 10 umol/L in human plasma (cat. no. 12250210, Cosmo Bio) and CD1 mouse plasma (cat. no. AP3054, KAC) and retrieved for a given time (0, 5, 10, 30, 60, and 120 minutes) and deproteinized, then analyzed by LC-MS. Acetonitrile comprising each of 10% quantity of 1 mol/L hydrochloric acid, 1% quantity of 46% citric acid, and phenytoin as an internal standard was used for deproteinization.
(§3) LC-MS measurement conditions were the following.
(§4) The yield of the Examples compounds and active form 2-acetylthieno[3,2-f][1]benzofuran-4,8-dione is calculated with each of the peak area of the Example compounds at 0 minutes and the peak area upon dissolution of 2-acetylthieno[3,2-f][1]benzofuran-4,8-dione at 100 umol/L as 100%. The yield is denoted in terms of %.
(§5) In the same manner as Example 1, the conversion ratio to an active form was measured for each of the various test compounds in human plasma and CD1 mouse plasma, with incubation time as 120 minutes. It was confirmed that the series of compounds of the invention was converted to an active form with a small interspecies difference in human plasma and CD1 mouse plasma.
(§6) The yield of the active forms is calculated with the each peak area upon dissolution of the generated active form at 100 umol/L as 100%. The yield is denoted in terms of %.

[3] = Evaluation of conversion rate to active form in human plasma; type: in vitro ADME; conditions: Human plasma, incubation time 120 minutes
Experimental: as §1, §2, §3, §4, §5, §6

solubility (physchem; 50 mmol/L glycine buffer): 1 µg/mL (≈ 3.9 µM)
Structure (SMILES): CC(=O)c1cc2c(o1)C(=O)c1cccc(O)c1C2=O [2-acetyl-5-hydroxynaphtho[2,3-b]furan-4,9-dione, reference compound]

Structure (SMILES): CC(=O)c1cc2c(O)c3c(O)cccc3c(OC(=O)NCCCN)c2o1 [Reference Example 9, 2-Acetyl-4,5-dihydroxynaphtho[2,3-b]furan-9-yl(3-aminopropyl)carbamate hydrochloride]
Residual ratio ([1]; pH2.0 buffer, 0 hr): 100% | Residual ratio ([1]; pH2.0 buffer, 3 hr): 96.9% | Residual ratio ([1]; pH2.0 buffer, 6 hr): 92.9% | Residual ratio ([1]; pH2.0 buffer, 9 hr): 85.7% | Residual ratio ([1]; pH2.0 buffer, 12 hr): 85.2% | Degradation behaviour in buffers (in words) [1]: pH dependent and chemical degradation progressed | Residual ratio ([1]; pH3.0 buffer, 0 hr): 101% | Residual ratio ([1]; pH3.0 buffer, 3 hr): 100% | Residual ratio ([1]; pH3.0 buffer, 6 hr): 100% | Residual ratio ([1]; pH3.0 buffer, 9 hr): 99.8% | Residual ratio ([1]; pH3.0 buffer, 12 hr): 99.5% | Residual ratio ([1]; pH3.0 buffer, 24 hr): 98.4% | Residual ratio ([1]; pH5.0 buffer, 0 hr): 102% | Residual ratio ([1]; pH5.0 buffer, 3 hr): 104% | Residual ratio ([1]; pH5.0 buffer, 6 hr): 99.7% | Residual ratio ([1]; pH5.0 buffer, 9 hr): 93.8% | Residual ratio ([1]; pH5.0 buffer, 12 hr): 87.4% | Residual ratio ([1]; pH5.0 buffer, 24 hr, hydrochloride): 67% and 67.1% | Residual ratio ([1]; pH7.4 buffer, 0 hr): 103% | Residual ratio ([1]; pH7.4 buffer, 3 hr): 83.0% | Residual ratio ([1]; pH7.4 buffer, 6 hr): 67.1% | Residual ratio ([1]; pH7.4 buffer, 9 hr): 52.7% | Residual ratio ([1]; pH7.4 buffer, 12 hr): 41.1% | Residual ratio ([1]; pH7.4 buffer, 24 hr, hydrochloride): 26% and 25.5% | Rate of generation of active form after 24 hours in buffer with pH of 7.4 [1]: 71% | Residual ratio ([1]; pH9.0 buffer, 0 hr): 75.3% | Residual ratio ([1]; pH9.0 buffer, 3 hr): 13.7% | Residual ratio ([1]; pH9.0 buffer, 6 hr, hydrochloride): 0% | Residual ratio ([1]; pH9.0 buffer, 9 hr): 0.0% | Residual ratio ([1]; pH9.0 buffer, 12 hr): 0.0% | Residual ratio ([1]; pH9.0 buffer, 24 hr): 0.0% | Stability in solution (in words) ([1]; pH of 2.0, 25° C.): sufficient stability | Stability in solution (in words) ([1]; pH of 3.0, 25° C.): sufficient stability | solubility (physchem): > 10000 µg/mL

Structure (SMILES): Cc1cc(OC(=O)NCCNCC(=O)O)c2ccccc2c1OC(=O)NCCNCC(=O)O [Example 2, 2,2′-[(2-Methylnaphthalene-1,4-diyl)bis(oxycarbonyliminoethane-2,1-diylimino)]diacetic acid dihydrochloride]
Residual ratio ([1]; pH2.0 buffer, 0 hr): 100% | Residual ratio ([1]; pH2.0 buffer, 3 hr): 100% | Residual ratio ([1]; pH2.0 buffer, 6 hr): 99.8% | Residual ratio ([1]; pH2.0 buffer, 9 hr): 99.7% | Residual ratio ([1]; pH2.0 buffer, 12 hr): 102% | Residual ratio ([1]; pH2.0 buffer, 24 hr): 100% | Degradation behaviour in buffers (in words) [1]: pH dependent and chemical degradation progressed | Residual ratio ([1]; pH3.0 buffer, 0 hr): 101% | Residual ratio ([1]; pH3.0 buffer, 3 hr): 101% | Residual ratio ([1]; pH3.0 buffer, 6 hr): 101% | Residual ratio ([1]; pH3.0 buffer, 9 hr): 100% | Residual ratio ([1]; pH3.0 buffer, 12 hr): 100% | Residual ratio ([1]; pH3.0 buffer, 24 hr): 101% | Residual ratio ([1]; pH5.0 buffer, 0 hr): 101% | Residual ratio ([1]; pH5.0 buffer, 3 hr): 101% | Residual ratio ([1]; pH5.0 buffer, 6 hr): 102% | Residual ratio ([1]; pH5.0 buffer, 9 hr): 102% | Residual ratio ([1]; pH5.0 buffer, 12 hr): 100% | Residual ratio ([1]; pH5.0 buffer, 24 hr): 102% | Residual ratio ([1]; pH7.4 buffer, 0 hr): 102% | Residual ratio ([1]; pH7.4 buffer, 3 hr): 50.7% | Residual ratio ([1]; pH7.4 buffer, 6 hr): 32.0% | Residual ratio ([1]; pH7.4 buffer, 9 hr): 16.2% | Residual ratio ([1]; pH7.4 buffer, 12 hr, dihydrochloride): 0% | Residual ratio ([1]; pH7.4 buffer, 24 hr): 0.0% | Rate of generation of active form after 24 hours in buffer with pH of 7.4 [1]: 7% | Residual ratio ([1]; pH9.0 buffer, 0 hr): 44.5% | Residual ratio ([1]; pH9.0 buffer, 3 hr, dihydrochloride): 0% | Residual ratio ([1]; pH9.0 buffer, 6 hr): 0.0% | Residual ratio ([1]; pH9.0 buffer, 9 hr): 0.0% | Residual ratio ([1]; pH9.0 buffer, 12 hr): 0.0% | Residual ratio ([1]; pH9.0 buffer, 24 hr): 0.0% | Stability in solution (in words) ([1]; pH of 2.0, 25° C.): very stable | Stability in solution (in words) ([1]; pH of 3.0, 25° C.): very stable | Stability in solution (in words) ([1]; pH of 5.0, 25° C.): very stable | solubility at 24 h (physchem): > 10000 µg/mL

solubility at 24 h (physchem; 50 mmol/L glycine buffer): 0.3 µg/mL (≈ 0.986 µM)
Structure (SMILES): O=C1C(=O)C(c2ccccc2)=C2OCOC2=C1c1ccccc1 [4,7-diphenyl-1,3-benzodioxol-5,6-dione, reference compound]

solubility at 24 h (physchem; 50 mmol/L glycine buffer): 97 µg/mL (≈ 563 µM)
Structure (SMILES): CC1=CC(=O)c2ccccc2C1=O [2-methylnaphthalen-1,4-dione, reference compound]

Structure (SMILES): COC(=O)[C@H](CCNC(=O)Oc1c(C)c(CCCCCCCCCCOC(=O)OC(C)(C)C)c(OC(=O)NCC[C@H](NC(=O)OC(C)(C)C)C(=O)OC)c(OC)c1OC)NC(=O)OC(C)(C)C [Reference Example 11, Dimethyl (2S,2′S)-4,4′-[(2-{10-[(tert-butoxycarbonyl)oxy]decayl}-5,6-dimethoxy-3-methylbenzene-1,4-diyl)bis(oxycarbonylimino)]bis{2-[(tert-butoxycarbonyl)amino]butanoate}]
Rate of generation of active form after 24 hours in buffer with pH of 7.4 [1]: 91% | Conversion ratio to an active form (Measurement value %) [2]: 100% | Conversion ratio to an active form (Measurement value %) [3]: 100%

Structure (SMILES): CNCCN(C)C(=O)Oc1cc(O)c([C@H]2CCN(C)C[C@H]2O)c2oc(-c3ccccc3Cl)cc(=O)c12 [Example 11, 2-(2-Chlorophenyl)-7-hydroxy-8-[(3S,4R)-3-hydroxy-1-methylpiperidin-4-yl]-4-oxo-4H-chromen-5-yl methyl[2-(methylamino)ethyl]carbamate ditrifluoroacetate]
Degradation behaviour in buffers (in words) [1]: pH dependent and chemical degradation progressed | Stability in solution (in words) ([1]; pH of 2.0, 25° C.): stable | Stability in solution (in words) ([1]; pH of 3.0, 25° C.): stable | Stability in solution (in words) ([1]; pH of 5.0, 25° C.): stable

Structure (SMILES): CNCCN(C)C(=O)Oc1cc(O)c2c(=O)cc(-c3ccccc3Cl)oc2c1[C@H]1CCN(C)C[C@H]1O [Example 10, 2-(2-Chlorophenyl)-5-hydroxy-8-[(3S,4R)-3-hydroxy-1-methylpiperidin-4-yl]-4-oxo-4H-chromen-7-yl methyl[2-(methylamino)ethyl]carbamate ditrifluoroacetate]
Degradation behaviour in buffers (in words) [1]: pH dependent and chemical degradation progressed | Rate of generation of active form after 24 hours in buffer with pH of 7.4 [1]: 96% | Stability in solution (in words) ([1]; pH of 2.0, 25° C.): sufficient stability | Stability in solution (in words) ([1]; pH of 3.0, 25° C.): sufficient stability

Structure (SMILES): CN1CC[C@H](c2c(O)cc(OC(=O)N(C)CCN)c3c(=O)cc(-c4ccccc4Cl)oc23)[C@H](O)C1 [Example 9, 2-(2-chlorophenyl)-7-hydroxy-8-[(3S,4R)-3-hydroxy-1-methylpiperidin-4-yl]-4-oxo-4H-chromen-5-yl (2-aminoethyl)methylcarbamate ditrifluoroacetate]
Degradation behaviour in buffers (in words) [1]: pH dependent and chemical degradation progressed | Rate of generation of active form after 24 hours in buffer with pH of 7.4 [1]: 23% | Stability in solution (in words) ([1]; pH of 2.0, 25° C.): stable | Stability in solution (in words) ([1]; pH of 3.0, 25° C.): stable | Stability in solution (in words) ([1]; pH of 5.0, 25° C.): stable
